Experimental data published in article doi:10.1101/2020.07.12.199869v2 (bioRxiv, 2020).

System: PGP/syndapin-2
Experiment: Proximity ligation assay PGP/syndapin-2 in BECs
Type: cell-based, mouse
Details: polarised BECs, FAM-Aβ (1-40) 500 nM, 15 minutes; n = 60 images

5-Fluorescein-amyloid-β protein (Aβ 1-40) [FAM-Aβ (1-40)]
change in interaction of syndapin-2 with PGP (PLA dots): no significant difference
